In PubChem BioAssay (NCI):
Where “and” joins values, the source holds several entries; their conditions need not be identical. Equal values may be shown once.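 Tested at 5 concentrations; 48 h exposure; 96-well plates; endpoints linearly interpolated, else capped at highest concentration. GI50 is the concentration that inhibits growth by half. Definition used: TGI = concentration required for complete inhibition of growth.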

Key:
Test in all cases: growth of human tumour cells (NCI), 48 h
NCI-H522 lung = system: NCI-H522 lung
UO-31 renal = system: UO-31 renal
SK-OV-3 ovarian = system: SK-OV-3 ovarian
ACHN renal = system: ACHN renal
HOP-62 NSCLC = system: HOP-62 NSCLC
SF-268 CNS = system: SF-268 CNS
HCC-2998 colon = system: HCC-2998 colon
CAKI-1 renal = system: CAKI-1 renal
HT29 colon = system: HT29 colon
A498 renal = system: A498 renal

CCOC1CC(=O)c2c(Br)sc(Br)c21 (centres undefined)
TGI (NCI-H522 lung): 52.7 µM
TGI (UO-31 renal): 33.5 µM
TGI (SK-OV-3 ovarian): 30.4 µM
TGI (ACHN renal): 36.7 µM
TGI (HOP-62 NSCLC): 38.2 µM
TGI (SF-268 CNS): 80.8 µM
TGI (HCC-2998 colon): 36.9 µM
TGI (CAKI-1 renal): 31 µM
TGI (HT29 colon): 44 µM
TGI (A498 renal): 83.3 µM

O=[N+]([O-])C(=C(N1CCCCC1)N1CCCCC1)/C(Cl)=C(\Cl)Br
TGI (NCI-H522 lung): 33.9 µM
TGI (UO-31 renal): > 100 µM
TGI (SK-OV-3 ovarian): > 100 µM
TGI (ACHN renal): 79.5 µM
TGI (HOP-62 NSCLC): > 100 µM
TGI (SF-268 CNS): 87.9 µM
TGI (HCC-2998 colon): 32.3 µM
TGI (CAKI-1 renal): 26.6 µM
TGI (HT29 colon): > 100 µM
TGI (A498 renal): 42.2 µM

Cc1cn2c(/C=C3/C(=O)Nc4cccc(Cl)c43)c(Cl)nc2s1
TGI (NCI-H522 lung): > 100 µM
TGI (UO-31 renal): > 100 µM
TGI (SK-OV-3 ovarian): > 100 µM
TGI (ACHN renal): > 100 µM
TGI (HOP-62 NSCLC): 39.1 µM
TGI (SF-268 CNS): > 100 µM
TGI (HCC-2998 colon): 76.5 µM
TGI (CAKI-1 renal): > 100 µM
TGI (HT29 colon): > 100 µM
TGI (A498 renal): > 100 µM

O=C1CCC(=Nc2ccc(Cl)cc2)N1C(=O)COc1ccc(OCC(=O)N2C(=O)CSC2=Nc2ccc(Cl)cc2)cc1
TGI (NCI-H522 lung): > 100 µM
TGI (UO-31 renal): > 100 µM
TGI (SK-OV-3 ovarian): > 100 µM
TGI (ACHN renal): > 100 µM
TGI (HOP-62 NSCLC): > 100 µM
TGI (SF-268 CNS): > 100 µM
TGI (HCC-2998 colon): > 100 µM
TGI (CAKI-1 renal): > 100 µM
TGI (HT29 colon): > 100 µM
TGI (A498 renal): > 100 µM

CCCCOC(C)(C)/C=C/C(O)[C@](C)(O)[C@H]1[C@H](O)C[C@@]2(C)[C@@H]3CCc4c(cc(OC5OC(CO)C(O)C(O)C5O)c(O)c4C)C3(C)C(=O)C[C@]12C (some centres undefined)
TGI (NCI-H522 lung): > 100 µM
TGI (UO-31 renal): > 100 µM
TGI (SK-OV-3 ovarian): > 100 µM
TGI (ACHN renal): > 100 µM
TGI (HOP-62 NSCLC): > 100 µM
TGI (SF-268 CNS): > 100 µM
TGI (HCC-2998 colon): > 100 µM
TGI (CAKI-1 renal): > 100 µM
TGI (HT29 colon): > 100 µM
TGI (A498 renal): > 100 µM

OC[C@@H](O)[C@H]1NC[C@@H](O)[C@H]1O
TGI (NCI-H522 lung): > 100 µM
TGI (UO-31 renal): > 100 µM
TGI (SK-OV-3 ovarian): > 100 µM
TGI (ACHN renal): > 100 µM
TGI (HOP-62 NSCLC): > 100 µM
TGI (SF-268 CNS): > 100 µM
TGI (HCC-2998 colon): > 100 µM
TGI (CAKI-1 renal): > 100 µM
TGI (HT29 colon): > 100 µM
TGI (A498 renal): > 100 µM

COP(=O)(O)/C=C/C(NC(=O)C(Cl)(Cl)Cl)c1ccccc1 (centres undefined)
TGI (NCI-H522 lung): > 100 µM
TGI (UO-31 renal): > 100 µM
TGI (SK-OV-3 ovarian): > 100 µM
TGI (ACHN renal): > 100 µM
TGI (HOP-62 NSCLC): > 100 µM
TGI (SF-268 CNS): > 100 µM
TGI (HCC-2998 colon): > 100 µM
TGI (CAKI-1 renal): > 100 µM
TGI (HT29 colon): > 100 µM
TGI (A498 renal): > 100 µM

O=C1c2ccccc2CN1c1ccc(O)cc1
TGI (NCI-H522 lung): > 100 µM
TGI (SK-OV-3 ovarian): > 100 µM
TGI (ACHN renal): > 100 µM
TGI (HOP-62 NSCLC): > 100 µM
TGI (SF-268 CNS): > 100 µM
TGI (HCC-2998 colon): > 100 µM
TGI (CAKI-1 renal): > 100 µM
TGI (HT29 colon): > 100 µM
TGI (A498 renal): > 100 µM

C=C(Cl)/C(=C\Cl)CCC(Br)C(C)C (centres undefined)
TGI (NCI-H522 lung): 39.9 µM
TGI (UO-31 renal): > 100 µM
TGI (SK-OV-3 ovarian): > 100 µM
TGI (ACHN renal): > 100 µM
TGI (HOP-62 NSCLC): > 100 µM
TGI (SF-268 CNS): > 100 µM
TGI (HCC-2998 colon): > 100 µM
TGI (CAKI-1 renal): > 100 µM
TGI (HT29 colon): > 100 µM
TGI (A498 renal): > 100 µM

CN(C)c1nc(=NCc2ccncc2)ss1
TGI (NCI-H522 lung): > 100 µM
TGI (UO-31 renal): > 80.9 µM
TGI (SK-OV-3 ovarian): > 64.6 µM
TGI (ACHN renal): 18.7 µM
GI50 (HOP-62 NSCLC): > 100 µM
TGI (HOP-62 NSCLC): > 100 µM
TGI (SF-268 CNS): > 100 µM
TGI (HCC-2998 colon): > 100 µM
TGI (CAKI-1 renal): > 56.3 µM
TGI (HT29 colon): 38.5 µM
TGI (A498 renal): > 100 µM

NC(CSCc1ccccc1)C(=O)O (centres undefined)
TGI (NCI-H522 lung): > 100 µM
TGI (UO-31 renal): > 100 µM
TGI (SK-OV-3 ovarian): > 100 µM
TGI (ACHN renal): > 100 µM
TGI (HOP-62 NSCLC): > 100 µM
TGI (SF-268 CNS): > 100 µM
TGI (HCC-2998 colon): > 100 µM
TGI (CAKI-1 renal): > 100 µM
TGI (HT29 colon): > 100 µM
TGI (A498 renal): > 100 µM

COc1cc2c(cc1OC)C1c3ccccc3CCN1CC2 (centres undefined)
TGI (NCI-H522 lung): > 100 µM
TGI (SK-OV-3 ovarian): > 100 µM
TGI (ACHN renal): > 100 µM
TGI (HOP-62 NSCLC): > 100 µM
TGI (SF-268 CNS): > 100 µM
TGI (HCC-2998 colon): > 100 µM
TGI (CAKI-1 renal): > 100 µM
TGI (HT29 colon): > 100 µM
TGI (A498 renal): > 100 µM

O=C(O)[C@@H]1C[C@@H](O)CN1C(=O)OCc1ccccc1
TGI (NCI-H522 lung): > 100 µM
TGI (UO-31 renal): > 100 µM
TGI (SK-OV-3 ovarian): > 100 µM
TGI (ACHN renal): > 100 µM
TGI (HOP-62 NSCLC): > 100 µM
TGI (SF-268 CNS): > 100 µM
TGI (HCC-2998 colon): > 100 µM
TGI (CAKI-1 renal): > 100 µM
TGI (HT29 colon): > 100 µM
TGI (A498 renal): > 100 µM

CCC(C(=O)O)c1ccc(OCc2ccccc2)cc1 (centres undefined)
TGI (NCI-H522 lung): > 100 µM
TGI (UO-31 renal): > 100 µM
TGI (SK-OV-3 ovarian): > 100 µM
TGI (ACHN renal): > 100 µM
TGI (HOP-62 NSCLC): > 100 µM
TGI (SF-268 CNS): > 100 µM
TGI (HCC-2998 colon): > 100 µM
TGI (CAKI-1 renal): > 100 µM
TGI (HT29 colon): > 100 µM
TGI (A498 renal): > 100 µM

C=C1C(=O)OC2/C=C(\CO)C(OC(C)=O)CC(O)/C(C)=C/C(OC(=O)C(C)CC)C12 (centres undefined)
TGI (NCI-H522 lung): 15.6 µM and 20.3 µM
TGI (UO-31 renal): > 100 µM
TGI (SK-OV-3 ovarian): > 100 µM
TGI (ACHN renal): 56.7 µM and 72.7 µM
TGI (HOP-62 NSCLC): > 100 µM
TGI (SF-268 CNS): 73.3 µM and 49.9 µM
TGI (HCC-2998 colon): 52.7 µM and 30.4 µM
TGI (CAKI-1 renal): 73.3 µM and 50.5 µM
TGI (HT29 colon): 46.6 µM and 35.5 µM
TGI (A498 renal): 91.9 µM and 88.7 µM

CCC12C[N+]3([O-])CCc4c([nH]c5ccccc45)C(C(=O)OC)(c4cc5c(cc4OC)N(C)C4C(O)(C(=O)OC)C(OC(C)=O)C6(CC)C=CCN7CCC54C76)CC(C3)C1O2 (centres undefined)
TGI (NCI-H522 lung): 0.282 µM
TGI (UO-31 renal): 14.4 µM
TGI (SK-OV-3 ovarian): 7.34 µM
TGI (ACHN renal): 31.9 µM
TGI (HOP-62 NSCLC): > 100 µM
TGI (SF-268 CNS): 28.8 µM
TGI (HCC-2998 colon): > 100 µM
TGI (CAKI-1 renal): 30.1 µM
TGI (HT29 colon): 17.2 µM
TGI (A498 renal): 18 µM
